Laboratory results as given in patent US7790765B2, “Hydroxy sulfonate of quinone compounds and their uses” (ArQule, Inc., priority 2007, dated 2010).

What was measured:
[1] = reversion of Compound 1 to β-lapachone in dilute or buffered solution (UV-vis, HPLC); format: physicochemical
Text: Thus, compound 1 also reverts back to β-lapachone under the conditions of high pH or when mixed with plasma. The hydroxy sulfonate of β-lapachone easily reverts back to β-lapachone in dilute solutions of bisulfite and other reagents. […] However, the mass by LC/MS for Compound 1 can be obtained using a short LC method where the acetonitrile/water mobile phase is acidified with 0.1% formic acid. Even under these conditions, two peaks are observed, one peak corresponding to Compound 1, and one to the β-lapachone released from the complex.

[2] = reversion of Compound 1 to β-lapachone in human plasma (UV-vis); format: in vitro ADME; settings: diluted human plasma
Text: Thus, compound 1 also reverts back to β-lapachone under the conditions of high pH or when mixed with plasma.

[3] = equilibrium solubility of β-lapachone with bisulfites, HPLC; format: physicochemical; settings: 3-15 mg/mL sodium metabisulfite or sodium bisulfite in water or 2.5-5% HPβCD; shaken 24 hours
Method: Solutions of bisulfites at different concentrations were prepared in water or 2.5% HPβCD and an excess amount of β-lapachone was added to obtain a saturated solution. These solutions were shaken for 24 hours, filtered through a 0.45 μm filter, and analyzed for β-lapachone concentration by HPLC. The equilibrium solubility results, in the presence and absence of HPβCD, are illustrated in FIGS. 1A to 1C. Bisulfite can enhance the equilibrium solubility of β-lapachone depending on the concentration of the bisulfites. […] The solubility of the β-lapachone is directly proportional with the amounts of bisulfites added, until they reach respective saturation concentrations (See FIG. 1C).

[4] = Text: Methyl beta-cyclodextrin (MeβCD) is a derivative of beta-cyclodextrin with 1-7 methyl substituents on the secondary O-2 positions.
HPβCD with two different degrees of substitutions, 6.9 and 4.3, were compared in terms of β-lapachone solubility.

human cancer cell lines = settings: single agent, typical range, read-out: antineoplastic activity (IC50); cited from earlier work
[5] = maximum concentrations of β-lapachone converted to Compound 1 at different pHs; format: physicochemical
[6] = tested on: normal or proliferating human PBMC; settings: cited from earlier work

| SMILES | stability: reversion to β-lapachone ([1]; diluted in phosphate buffered saline at pH 7, UV-vis) | stability: reversion to β-lapachone ([1]; diluted with mobile phase of acetonitrile and phosphate buffer pH 6.8, HPLC) | stability: reversion to β-lapachone ([1]; dilution to 20-100 μM or less, or pH increased to 6-7 or higher in combination with dilution, UV-vis) | stability in human plasma: reversion to β-lapachone ([2]; pH 7) | stability in human plasma: reversion to β-lapachone ([2]; pH 7, listed as compound 1) | equilibrium solubility in aqueous solution [3] | higher solubilizing effect of HPβCD of lower degree of substitution on β-lapachone solubility [4] | IC50 (human cancer cell lines) | Converted β-lapachone Conc. ([5]; Na2S2O5 5 mg/mL, pH of the formulation 3.01) | Converted β-lapachone Conc. ([5]; Na2S2O5 5 mg/mL, pH of the formulation 4.46) | Converted β-lapachone Conc. ([5]; Na2S2O5 5 mg/mL, pH of the formulation 7.04) | Converted β-lapachone Conc. ([5]; NaHSO3 5 mg/mL, pH of the formulation 3.29) | Converted β-lapachone Conc. ([5]; NaHSO3 5 mg/mL, pH of the formulation 4.52) | Converted β-lapachone Conc. ([5]; NaHSO3 5 mg/mL, pH of the formulation 7.04) | cytotoxic effects [6] |
| --- | --- | --- | --- | --- | --- | --- | --- | --- | --- | --- | --- | --- | --- | --- | --- |
| CC1(C)CCC2=C(O1)c1ccccc1C(O)(S(=O)(=O)[O-])C2=O.[Na+] (stereo not drawn) [Compound 1, Sodium 6-hydroxy-2,2-dimethyl-5-oxo-3,4,5,6-tetrahydro-2H-benzo(h)chromene-6-sulfonate] | UV-vis spectrum become identical to that for a solution of β-lapachone | only the β-lapachone can be detected | converts Compound 1 back to β-lapachone | UV-vis spectrum become identical to that for a solution of β-lapachone | the only species present is β-lapachone |  |  |  |  |  |  |  |  |  |  |
| CC1(C)CCC2=C(O1)c1ccccc1C(=O)C2=O [β-lapachone, 3,4-dihydro-2,2-dimethyl-2H-naphtho[1,2-b]pyran-5,6-dione] |  |  |  |  |  | dramatically improve the solubility | 16-17% | 1 to 10 µM | 5.90 mg/mL | 5.76 mg/mL | 1.88 mg/mL | 5.76 mg/mL | 5.97 mg/mL | 2.23 mg/mL | No cytotoxic effects were observed |
